Reference: patent publication US7074789B2, “Kinase inhibitors” (Amgen Inc., priority 1999, dated 2006)

Tests used:
Assay type in all cases: biochemical
Tek = target: T1, Tek (Homo sapiens, UniProt Q02763); experiment: Kinase inhibition assay (33P transfer), Tek; conditions: read-out: Tek-1
T1 construct: Kinases are expressed as either kinase domains or full length constructs; made in house
Procedure, shortened: (§1)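 Each enzyme, purified to near homogeneity by affinity chromatography, was incubated with ATP carrying 33P and a substrate polymer fixed to the plate. Unbound label was removed with dilute phosphoric acid (0.5%) before adding scintillant and counting. Potency is given as the compound level cutting label uptake by 50%.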

Lck = target: T2, Lck (Homo sapiens, UniProt P06239); experiment: Kinase inhibition assay (33P transfer), Lck; conditions: Table 3; read-out: Lck-1
T2 construct: Kinases are expressed as either kinase domains or full length constructs; made in house
Procedure, shortened: (§2)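 Each kinase, expressed as a GST- or polyHis-tagged domain or full-length protein, phosphorylated plate-attached poly(Glu,Tyr) 4:1 or poly(Arg,Ser) 3:1 using 33P-ATP. Bound radioactivity was measured by scintillation after a 0.5% phosphoric acid wash.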

AKT = target: T3, AKT (Homo sapiens, UniProt Q9Y243); experiment: Kinase inhibition assay (33P transfer), AKT; conditions: Table 2, kinase inhibition class; read-out: AKT3-1
T3 construct: Kinases are expressed as either kinase domains or full length constructs; made in house
T3 sequence (Q9Y243 whole entry, the tested form may be a part): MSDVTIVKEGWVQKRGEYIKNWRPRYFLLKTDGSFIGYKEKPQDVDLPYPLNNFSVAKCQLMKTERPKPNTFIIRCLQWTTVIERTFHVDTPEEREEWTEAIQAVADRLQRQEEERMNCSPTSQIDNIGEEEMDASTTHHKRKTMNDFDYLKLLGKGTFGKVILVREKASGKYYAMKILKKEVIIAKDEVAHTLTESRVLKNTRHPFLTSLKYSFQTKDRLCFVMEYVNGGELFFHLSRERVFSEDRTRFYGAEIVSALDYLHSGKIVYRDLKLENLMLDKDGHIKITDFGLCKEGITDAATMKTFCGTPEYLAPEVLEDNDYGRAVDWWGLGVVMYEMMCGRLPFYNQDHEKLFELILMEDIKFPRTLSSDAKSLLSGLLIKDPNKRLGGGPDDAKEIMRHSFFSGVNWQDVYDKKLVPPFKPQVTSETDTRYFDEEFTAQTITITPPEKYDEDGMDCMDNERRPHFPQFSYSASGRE
Procedure, shortened: as §2

Flt-1 = target: T4, Flt-1 (Homo sapiens, UniProt P17948); experiment: Kinase inhibition assay (33P transfer), Flt-1
T4 construct: Kinases are expressed as either kinase domains or full length constructs; made in house
Procedure, shortened: as §1

ErbB4 = target: T5, ErbB4 (Homo sapiens, UniProt Q15303); experiment: Kinase inhibition assay (33P transfer), ErbB4; conditions: read-out: ErbB4-1
T5 construct: Kinases are expressed as either kinase domains or full length constructs; made in house

IGFR-1 = target: T6, IGFR-1 (Homo sapiens, UniProt P08069); experiment: Kinase inhibition assay (33P transfer), IGFR-1; conditions: Table 2, kinase inhibition class
T6 construct: Kinases are expressed as either kinase domains or full length constructs; made in house
T6 sequence (P08069 31-1367): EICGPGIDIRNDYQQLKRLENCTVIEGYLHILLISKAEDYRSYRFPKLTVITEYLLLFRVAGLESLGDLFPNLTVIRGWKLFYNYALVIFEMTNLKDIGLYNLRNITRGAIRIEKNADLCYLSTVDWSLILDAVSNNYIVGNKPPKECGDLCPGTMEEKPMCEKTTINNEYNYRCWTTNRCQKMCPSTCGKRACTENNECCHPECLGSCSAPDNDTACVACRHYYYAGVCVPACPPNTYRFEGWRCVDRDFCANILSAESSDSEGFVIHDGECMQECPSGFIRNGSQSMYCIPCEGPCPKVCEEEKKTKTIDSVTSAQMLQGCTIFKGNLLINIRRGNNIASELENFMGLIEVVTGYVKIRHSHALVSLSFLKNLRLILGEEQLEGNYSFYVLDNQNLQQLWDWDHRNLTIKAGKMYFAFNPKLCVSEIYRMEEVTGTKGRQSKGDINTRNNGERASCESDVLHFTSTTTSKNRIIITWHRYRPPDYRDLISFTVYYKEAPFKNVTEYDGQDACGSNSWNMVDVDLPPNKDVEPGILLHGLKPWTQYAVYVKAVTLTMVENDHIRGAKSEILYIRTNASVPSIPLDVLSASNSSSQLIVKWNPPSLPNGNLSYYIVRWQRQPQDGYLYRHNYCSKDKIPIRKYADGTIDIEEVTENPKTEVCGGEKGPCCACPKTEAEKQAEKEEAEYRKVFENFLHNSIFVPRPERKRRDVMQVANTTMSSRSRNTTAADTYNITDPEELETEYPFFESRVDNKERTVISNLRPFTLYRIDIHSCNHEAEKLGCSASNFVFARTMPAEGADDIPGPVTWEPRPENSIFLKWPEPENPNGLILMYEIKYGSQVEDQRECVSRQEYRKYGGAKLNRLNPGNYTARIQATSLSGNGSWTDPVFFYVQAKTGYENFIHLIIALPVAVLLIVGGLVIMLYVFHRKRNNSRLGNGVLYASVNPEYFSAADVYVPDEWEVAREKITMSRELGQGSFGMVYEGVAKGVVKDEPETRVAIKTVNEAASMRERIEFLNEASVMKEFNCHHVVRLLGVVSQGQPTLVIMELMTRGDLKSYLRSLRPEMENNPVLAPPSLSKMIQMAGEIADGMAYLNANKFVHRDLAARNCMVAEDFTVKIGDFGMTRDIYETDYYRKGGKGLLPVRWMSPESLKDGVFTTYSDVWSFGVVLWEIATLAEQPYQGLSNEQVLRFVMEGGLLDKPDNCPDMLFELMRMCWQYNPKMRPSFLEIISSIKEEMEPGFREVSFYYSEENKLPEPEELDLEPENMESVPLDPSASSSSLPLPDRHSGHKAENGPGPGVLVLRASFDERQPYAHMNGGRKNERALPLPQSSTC

c-Met = target: T7, c-Met (Homo sapiens, UniProt P08581); experiment: Kinase inhibition assay (33P transfer), c-Met; conditions: Table 2, kinase inhibition class; read-out: Met-1
T7 construct: Kinases are expressed as either kinase domains or full length constructs; made in house
T7 sequence (P08581 25-1390): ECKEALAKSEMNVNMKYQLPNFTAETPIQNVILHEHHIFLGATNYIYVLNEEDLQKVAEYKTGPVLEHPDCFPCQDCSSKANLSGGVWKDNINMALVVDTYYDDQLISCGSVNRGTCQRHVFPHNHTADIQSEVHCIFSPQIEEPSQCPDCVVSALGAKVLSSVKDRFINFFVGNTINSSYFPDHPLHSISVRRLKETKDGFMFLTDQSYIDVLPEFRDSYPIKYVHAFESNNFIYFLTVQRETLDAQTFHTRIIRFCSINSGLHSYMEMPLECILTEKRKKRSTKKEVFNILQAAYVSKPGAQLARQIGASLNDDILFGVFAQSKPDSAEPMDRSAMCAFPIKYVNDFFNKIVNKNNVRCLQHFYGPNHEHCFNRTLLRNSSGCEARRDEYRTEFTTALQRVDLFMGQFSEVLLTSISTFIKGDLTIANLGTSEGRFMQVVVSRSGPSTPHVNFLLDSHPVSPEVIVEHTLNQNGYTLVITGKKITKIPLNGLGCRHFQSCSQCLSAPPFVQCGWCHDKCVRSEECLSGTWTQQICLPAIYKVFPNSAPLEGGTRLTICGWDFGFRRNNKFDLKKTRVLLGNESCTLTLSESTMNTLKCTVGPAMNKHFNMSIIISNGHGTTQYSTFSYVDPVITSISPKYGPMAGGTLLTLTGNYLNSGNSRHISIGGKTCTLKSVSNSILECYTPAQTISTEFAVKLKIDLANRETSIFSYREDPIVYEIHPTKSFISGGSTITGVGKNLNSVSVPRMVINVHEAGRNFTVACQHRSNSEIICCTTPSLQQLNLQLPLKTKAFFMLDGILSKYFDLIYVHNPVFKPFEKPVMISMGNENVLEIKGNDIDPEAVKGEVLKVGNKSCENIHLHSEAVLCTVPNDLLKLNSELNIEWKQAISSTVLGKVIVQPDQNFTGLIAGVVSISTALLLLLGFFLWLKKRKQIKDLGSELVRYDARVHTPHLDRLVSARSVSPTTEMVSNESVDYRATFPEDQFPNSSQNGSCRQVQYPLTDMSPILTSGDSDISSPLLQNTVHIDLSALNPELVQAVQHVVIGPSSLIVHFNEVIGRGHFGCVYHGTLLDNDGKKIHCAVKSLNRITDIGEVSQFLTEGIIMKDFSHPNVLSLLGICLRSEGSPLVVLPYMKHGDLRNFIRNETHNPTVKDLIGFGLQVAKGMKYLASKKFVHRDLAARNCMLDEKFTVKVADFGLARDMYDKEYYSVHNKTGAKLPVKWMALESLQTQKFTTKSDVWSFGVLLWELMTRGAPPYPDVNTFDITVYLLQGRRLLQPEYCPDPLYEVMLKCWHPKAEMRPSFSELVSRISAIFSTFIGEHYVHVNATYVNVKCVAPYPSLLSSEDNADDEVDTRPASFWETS
Procedure, shortened: as §1

Lyn = target: T8, Lyn (Homo sapiens, UniProt P07948); experiment: Kinase inhibition assay (33P transfer), Lyn; conditions: Table 6, Lyn-1 kinase inhibition class
T8 construct: Kinases are expressed as either kinase domains or full length constructs; made in house
Procedure, shortened: as §1

FGFR1 = target: T9, FGFR1 (Homo sapiens, UniProt P11362); experiment: Kinase inhibition assay (33P transfer), FGFR1; conditions: read-out: FGFR1-1
T9 construct: Kinases are expressed as either kinase domains or full length constructs; made in house
T9 sequence (P11362 22-822, species assumed): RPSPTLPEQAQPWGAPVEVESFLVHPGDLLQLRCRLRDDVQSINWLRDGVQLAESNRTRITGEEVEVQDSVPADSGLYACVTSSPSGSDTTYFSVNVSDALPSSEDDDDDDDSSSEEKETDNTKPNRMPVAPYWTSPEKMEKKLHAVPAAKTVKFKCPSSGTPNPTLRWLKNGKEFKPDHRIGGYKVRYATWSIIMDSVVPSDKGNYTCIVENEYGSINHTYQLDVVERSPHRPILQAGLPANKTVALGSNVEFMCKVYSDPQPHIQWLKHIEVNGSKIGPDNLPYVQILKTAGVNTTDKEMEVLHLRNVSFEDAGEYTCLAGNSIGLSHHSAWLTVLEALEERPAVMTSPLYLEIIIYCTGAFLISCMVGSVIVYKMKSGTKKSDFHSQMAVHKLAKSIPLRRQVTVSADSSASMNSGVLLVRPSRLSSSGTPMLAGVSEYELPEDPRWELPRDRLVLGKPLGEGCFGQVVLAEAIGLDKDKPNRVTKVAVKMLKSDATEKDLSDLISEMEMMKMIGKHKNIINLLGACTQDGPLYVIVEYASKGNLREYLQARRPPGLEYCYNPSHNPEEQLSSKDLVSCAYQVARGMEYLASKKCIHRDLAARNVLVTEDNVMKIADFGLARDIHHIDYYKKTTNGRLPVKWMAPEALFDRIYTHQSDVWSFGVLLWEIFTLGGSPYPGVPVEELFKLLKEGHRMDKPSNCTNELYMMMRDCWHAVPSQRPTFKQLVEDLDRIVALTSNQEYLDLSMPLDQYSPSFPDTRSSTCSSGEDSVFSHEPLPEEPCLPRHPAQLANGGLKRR

EPHB4 = target: T10, EPHB4 (Homo sapiens, UniProt P54760); experiment: Kinase inhibition assay (33P transfer), EPHB4; conditions: read-out: EPHB4-1
T10 construct: Kinases are expressed as either kinase domains or full length constructs; made in house
T10 sequence (P54760 16-987): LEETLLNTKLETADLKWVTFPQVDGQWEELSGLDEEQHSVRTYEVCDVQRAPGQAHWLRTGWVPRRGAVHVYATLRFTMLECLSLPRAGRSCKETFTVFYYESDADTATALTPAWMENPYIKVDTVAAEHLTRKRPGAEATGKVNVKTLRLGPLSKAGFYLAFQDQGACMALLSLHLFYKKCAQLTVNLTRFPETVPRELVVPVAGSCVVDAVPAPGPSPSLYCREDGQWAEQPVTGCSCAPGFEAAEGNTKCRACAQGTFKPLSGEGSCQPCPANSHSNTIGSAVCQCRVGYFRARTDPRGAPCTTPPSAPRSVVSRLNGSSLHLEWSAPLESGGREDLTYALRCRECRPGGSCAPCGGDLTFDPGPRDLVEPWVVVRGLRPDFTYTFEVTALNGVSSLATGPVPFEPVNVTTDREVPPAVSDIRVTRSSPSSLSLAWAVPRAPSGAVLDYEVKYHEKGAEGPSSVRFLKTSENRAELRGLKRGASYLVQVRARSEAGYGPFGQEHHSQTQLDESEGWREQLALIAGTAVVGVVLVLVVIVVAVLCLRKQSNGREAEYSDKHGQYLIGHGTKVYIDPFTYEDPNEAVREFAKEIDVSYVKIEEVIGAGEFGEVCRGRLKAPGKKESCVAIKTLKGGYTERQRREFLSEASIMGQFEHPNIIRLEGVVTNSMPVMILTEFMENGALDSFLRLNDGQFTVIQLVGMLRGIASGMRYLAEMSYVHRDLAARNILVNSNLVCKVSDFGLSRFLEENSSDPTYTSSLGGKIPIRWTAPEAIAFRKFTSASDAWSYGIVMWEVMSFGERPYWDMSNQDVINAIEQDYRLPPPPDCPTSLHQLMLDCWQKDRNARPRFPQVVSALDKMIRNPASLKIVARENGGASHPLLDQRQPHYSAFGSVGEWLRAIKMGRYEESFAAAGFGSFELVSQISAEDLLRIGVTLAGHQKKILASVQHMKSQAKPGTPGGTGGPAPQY

Fyn = target: T11, Fyn (Homo sapiens, UniProt P06241); experiment: Kinase inhibition assay (33P transfer), Fyn; conditions: read-out: Fyn-1
T11 construct: Kinases are expressed as either kinase domains or full length constructs; made in house
Procedure, shortened: as §1

EGFR = target: T12, EGFR (Homo sapiens, UniProt P00533); experiment: Kinase inhibition assay (33P transfer), EGFR; conditions: Table 2, kinase inhibition class; read-out: EGFR-1
T12 construct: Kinases are expressed as either kinase domains or full length constructs; made in house
Procedure, shortened: as §1

Ret-1 = target: T13, Ret-1 (Homo sapiens, UniProt P07949); experiment: Kinase inhibition assay (33P transfer), Ret; conditions: Table 6, Ret-1 kinase inhibition class
T13 construct: Kinases are expressed as either kinase domains or full length constructs; made in house
T13 sequence (P07949 29-1114): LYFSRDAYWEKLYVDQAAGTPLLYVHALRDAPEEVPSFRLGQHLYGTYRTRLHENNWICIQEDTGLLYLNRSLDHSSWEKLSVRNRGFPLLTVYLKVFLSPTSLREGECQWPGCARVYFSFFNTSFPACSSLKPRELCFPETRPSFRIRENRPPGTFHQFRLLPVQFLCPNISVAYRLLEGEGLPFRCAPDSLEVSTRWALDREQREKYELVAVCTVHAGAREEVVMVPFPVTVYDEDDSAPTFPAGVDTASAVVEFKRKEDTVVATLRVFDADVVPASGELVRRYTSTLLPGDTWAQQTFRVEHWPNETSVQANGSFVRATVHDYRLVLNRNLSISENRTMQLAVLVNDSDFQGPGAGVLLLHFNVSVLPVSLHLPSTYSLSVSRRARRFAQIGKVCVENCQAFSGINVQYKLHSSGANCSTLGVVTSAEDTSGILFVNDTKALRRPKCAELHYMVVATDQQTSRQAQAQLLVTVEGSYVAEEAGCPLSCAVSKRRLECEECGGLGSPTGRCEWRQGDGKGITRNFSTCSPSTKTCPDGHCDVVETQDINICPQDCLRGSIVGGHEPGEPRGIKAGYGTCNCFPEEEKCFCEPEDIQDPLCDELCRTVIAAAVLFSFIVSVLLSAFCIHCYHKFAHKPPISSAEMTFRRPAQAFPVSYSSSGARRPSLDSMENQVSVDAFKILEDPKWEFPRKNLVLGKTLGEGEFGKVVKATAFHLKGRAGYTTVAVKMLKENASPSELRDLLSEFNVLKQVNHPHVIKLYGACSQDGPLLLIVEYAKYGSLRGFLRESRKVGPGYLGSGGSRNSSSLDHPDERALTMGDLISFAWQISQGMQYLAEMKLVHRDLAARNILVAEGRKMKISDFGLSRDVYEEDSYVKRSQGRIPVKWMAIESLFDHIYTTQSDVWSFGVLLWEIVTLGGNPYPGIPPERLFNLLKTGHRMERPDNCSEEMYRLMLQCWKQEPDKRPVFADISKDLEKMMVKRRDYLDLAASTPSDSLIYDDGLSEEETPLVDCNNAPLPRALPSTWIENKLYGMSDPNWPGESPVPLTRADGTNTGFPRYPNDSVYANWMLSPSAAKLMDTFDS

| Structure (SMILES) | IC50 (Tek) [µM] | IC50 (Lck) [µM] | IC50 (AKT) [µM] | IC50 (Flt-1) [µM] | IC50 (ErbB4) [µM] | IC50 (IGFR-1) [µM] | IC50 (c-Met) [µM] | IC50 (Lyn) [µM] | IC50 (FGFR1) [µM] | IC50 (EPHB4) [µM] | IC50 (Fyn) [µM] | IC50 (EGFR) [µM] | IC50 (Ret-1) [µM] |
| --- | --- | --- | --- | --- | --- | --- | --- | --- | --- | --- | --- | --- | --- |
| COCCOc1ccc(Nc2ncnc(Nc3ccc(C)c(O)c3)n2)cc1OC [Compound 123] | 8.81 to 11.3 | 1.01 to 6.04 | > 11.3 | < 1.01 | 1.01 to 6.04 | 1.01 to 6.04 | > 11.3 | < 1.01 | 1.01 to 6.04 | > 11.3 | 1.01 to 6.04 | < 1.01 | < 1.01 |
| COc1ccc(Nc2ncnc(N(C/C=C/c3ccccc3)c3ccc(Cl)cc3)n2)cc1OC [Compound 974] | > 9.49 | 5.06 to 7.38 | > 9.49 | > 9.49 | > 9.49 | > 9.49 | > 9.49 | 5.06 to 7.38 | 5.06 to 7.38 | > 9.49 | > 9.49 | < 0.844 | > 9.49 |
| NC(=O)c1cccc(Nc2ncnc(Nc3cc(-c4ccco4)n[nH]3)n2)c1 [Compound 342] | > 12.4 | 1.1 to 6.62 | > 12.4 | < 1.1 | 1.1 to 6.62 | 1.1 to 6.62 | 1.1 to 6.62 | 1.1 to 6.62 | < 1.1 | 1.1 to 6.62 | 1.1 to 6.62 | < 1.1 | < 1.1 |
| c1coc(-c2cc(Nc3ncnc(Nc4ccc(N5CCOCC5)cc4)n3)[nH]n2)c1 [Compound 340] | 8.65 to 11.1 | 0.989 to 5.93 | 5.93 to 8.65 | < 0.989 | 0.989 to 5.93 | < 0.989 | < 0.989 | 0.989 to 5.93 | 0.989 to 5.93 | 0.989 to 5.93 | 0.989 to 5.93 | 5.93 to 8.65 | < 0.989 |
| COc1ccc(Nc2ncnc(N(CC(=O)O)c3ccc4c(c3)OCO4)n2)cc1OC [Compound 320] | > 10.6 | 5.64 to 8.23 | > 10.6 | > 10.6 | > 10.6 | > 10.6 | 5.64 to 8.23 | > 10.6 | > 10.6 | > 10.6 | > 10.6 | 0.94 to 5.64 | > 10.6 |
| COc1cc(Nc2ncnc(Nc3ccc(C)cc3F)n2)cc(OC)c1OC [Compound 937] | > 11.7 | 1.04 to 6.23 | > 11.7 | 9.08 to 11.7 | 6.23 to 9.08 | < 1.04 | 6.23 to 9.08 | < 1.04 | > 11.7 | 1.04 to 6.23 | 1.04 to 6.23 | < 1.04 | < 1.04 |
| COc1cc(Nc2ncnc(-n3ccc4cc(OCc5ccccc5)ccc43)n2)cc(OC)c1OC [Compound 200] | > 9.31 | 7.24 to 9.31 | > 9.31 | > 9.31 | 4.96 to 7.24 | > 9.31 | 7.24 to 9.31 | > 9.31 | 7.24 to 9.31 | > 9.31 | > 9.31 | > 9.31 | > 9.31 |
| COc1cc(Nc2ncnc(Nc3ccc(OCc4ccccc4)cc3)n2)cc(OC)c1 [Compound 156] | > 10.5 | 8.15 to 10.5 | > 10.5 | 5.59 to 8.15 | 5.59 to 8.15 | > 10.5 | 8.15 to 10.5 | 5.59 to 8.15 | 0.931 to 5.59 | > 10.5 | 5.59 to 8.15 | < 0.931 | > 10.5 |
